According to publication PMC11769294, “(E)-1-(3-(3-Hydroxy-4-Methoxyphenyl)-1-(3,4,5-Trimethoxyphenyl)allyl)-1H-1,2,4-Triazole and Related Compounds: Their Synthesis and Biological Evaluation as Novel Antimitotic Agents Targeting Breast Cancer” (Pharmaceuticals, 2025):
Where “and” joins values, the source holds several entries; their conditions need not be identical. Equal values may be shown once.

Key:
Type in all cases: cell-based, human
[1] = system: HOP-92 (Non-Small Cell Lung Cancer); test: NCI60 screen (SRB); details: one dose 10 µM, 48 h
A498 (Renal Cancer) = test: NCI60 screen (SRB); details: one dose 10 µM, 48 h
RPMI-8226 (Leukemia) = test: NCI60 screen (SRB); details: one dose 10 µM, 48 h
786-0 (Renal Cancer) = test: NCI60 screen (SRB); details: one dose 10 µM, 48 h
BT-549 (Breast Cancer) = test: NCI60 screen (SRB); details: one dose 10 µM, 48 h
breast cancer panel = test: NCI60 screen (SRB), panel mean; details: BC panel; one dose 10 µM; 48 h
OVCAR-5 (Ovarian Cancer) = test: NCI60 screen (SRB); details: one dose 10 µM, 48 h
[2] = system: NCI-H322M (Non-Small Cell Lung Cancer); test: NCI60 screen (SRB); details: one dose 10 µM, 48 h
CCRF-CEM (Leukemia) = test: NCI60 screen (SRB); details: one dose 10 µM, 48 h
TK-10 (Renal Cancer) = test: NCI60 screen (SRB); details: one dose 10 µM, 48 h
[3] = system: NCI-H23 (Non-Small Cell Lung Cancer); test: NCI60 screen (SRB); details: one dose 10 µM, 48 h
RXF 393 (Renal Cancer) = test: NCI60 screen (SRB); details: one dose 10 µM, 48 h
MDA-MB-435 (Melanoma) = test: NCI60 screen (SRB); details: one dose 10 µM, 48 h
M14 (Melanoma) = test: NCI60 screen (SRB); details: one dose 10 µM, 48 h
CAKI-1 (Renal Cancer) = test: NCI60 screen (SRB); details: one dose 10 µM, 48 h
K-562 (Leukemia) = test: NCI60 screen (SRB); details: one dose 10 µM, 48 h
MCF7 (Breast Cancer) = test: NCI60 screen (SRB); details: one dose 10 µM, 48 h
OVCAR-4 (Ovarian Cancer) = test: NCI60 screen (SRB); details: one dose 10 µM, 48 h
KM12 (Colon Cancer) = test: NCI60 screen (SRB); details: one dose 10 µM, 48 h
HCT-15 (Colon Cancer) = test: NCI60 screen (SRB); details: one dose 10 µM, 48 h
[4] = system: HOP-62 (Non-Small Cell Lung Cancer); test: NCI60 screen (SRB); details: one dose 10 µM, 48 h
SF-295 (CNS Cancer) = test: NCI60 screen (SRB); details: one dose 10 µM, 48 h
SW-620 (Colon Cancer) = test: NCI60 screen (SRB); details: one dose 10 µM, 48 h
SK-MEL-5 (Melanoma) = test: NCI60 screen (SRB); details: one dose 10 µM, 48 h
leukemia panel = test: NCI60 screen (SRB), panel mean; details: one dose 10 µM, 48 h
LOX IMVI (Melanoma) = test: NCI60 screen (SRB); details: one dose 10 µM, 48 h
IGROV1 (Ovarian Cancer) = test: NCI60 screen (SRB); details: one dose 10 µM, 48 h
[5] = system: MDA-MB-231/ATCC (Breast Cancer); test: NCI60 screen (SRB); details: one dose 10 µM, 48 h
UACC-62 (Melanoma) = test: NCI60 screen (SRB); details: one dose 10 µM, 48 h
PC-3 (Prostate Cancer) = test: NCI60 screen (SRB); details: one dose 10 µM, 48 h
UO-31 (Renal Cancer) = test: NCI60 screen (SRB); details: one dose 10 µM, 48 h
MALME-3M (Melanoma) = test: NCI60 screen (SRB); details: one dose 10 µM, 48 h
OVCAR-3 (Ovarian Cancer) = test: NCI60 screen (SRB); details: one dose 10 µM, 48 h
SF-268 (CNS Cancer) = test: NCI60 screen (SRB); details: one dose 10 µM, 48 h
[6] = system: NCI-H522 (Non-Small Cell Lung Cancer); test: NCI60 screen (SRB); details: one dose 10 µM, 48 h
SNB-75 (CNS Cancer) = test: NCI60 screen (SRB); details: one dose 10 µM, 48 h
HT29 (Colon Cancer) = test: NCI60 screen (SRB); details: one dose 10 µM, 48 h
OVCAR-8 (Ovarian Cancer) = test: NCI60 screen (SRB); details: one dose 10 µM, 48 h
U251 (CNS Cancer) = test: NCI60 screen (SRB); details: one dose 10 µM, 48 h
SF-539 (CNS Cancer) = test: NCI60 screen (SRB); details: one dose 10 µM, 48 h
ACHN (Renal Cancer) = test: NCI60 screen (SRB); details: one dose 10 µM, 48 h
SK-MEL-28 (Melanoma) = test: NCI60 screen (SRB); details: one dose 10 µM, 48 h

## COc1ccc(/C=C/C(c2cc(OC)c(OC)c(OC)c2)n2ccnc2)cc1O (stereo not drawn) [Compound 23b, (E)-5-(3-(1H-Imidazol-1-yl)-3-(3,4,5-trimethoxyphenyl)prop-1-en-1-yl)-2-methoxyphenol]
[1]
  growth percent: 30.49%
A498 (Renal Cancer)
  growth percent: 67.46%
RPMI-8226 (Leukemia)
  growth percent: 15.14%
786-0 (Renal Cancer)
  growth percent: 34.04%
BT-549 (Breast Cancer)
  growth percent: 44.34%
Breast cancer panel
  mean growth percentage: 38.1%
OVCAR-5 (Ovarian Cancer)
  growth percent: 102.8%
[2]
  growth percent: 45.84%
CCRF-CEM (Leukemia)
  growth percent: 37.13%
TK-10 (Renal Cancer)
  growth percent: 84.45%
[3]
  growth percent: 55.69%
RXF 393 (Renal Cancer)
  growth percent: 33.07%
MDA-MB-435 (Melanoma)
  growth percent: −25.56%
M14 (Melanoma)
  growth percent: 18.61%
CAKI-1 (Renal Cancer)
  growth percent: 60.21%
K-562 (Leukemia)
  growth percent: 13.63%
MCF7 (Breast Cancer)
  growth percent: 17.9% and 17.87%
OVCAR-4 (Ovarian Cancer)
  growth percent: 78.81%
KM12 (Colon Cancer)
  growth percent: 29.04%
HCT-15 (Colon Cancer)
  growth percent: 24.91%
[4]
  growth percent: 47.25%
SF-295 (CNS Cancer)
  growth percent: 16.59%
SW-620 (Colon Cancer)
  growth percent: 17.41%
SK-MEL-5 (Melanoma)
  growth percent: 16.98%
Leukemia panel
  mean growth percentage: 11.2%
LOX IMVI (Melanoma)
  growth percent: 46.09%
IGROV1 (Ovarian Cancer)
  growth percent: 55.74%
[5]
  growth percent: 53.0% and 52.97%
UACC-62 (Melanoma)
  growth percent: 36.37%
PC-3 (Prostate Cancer)
  growth percent: 25.28%
UO-31 (Renal Cancer)
  growth percent: 59.92%
MALME-3M (Melanoma)
  growth percent: 57.72%
OVCAR-3 (Ovarian Cancer)
  growth percent: 4.86%
SF-268 (CNS Cancer)
  growth percent: 56.10%
[6]
  growth percent: 24.65%
SNB-75 (CNS Cancer)
  growth percent: 20.04%
HT29 (Colon Cancer)
  growth percent: 70.97%
OVCAR-8 (Ovarian Cancer)
  growth percent: 40.97%
U251 (CNS Cancer)
  growth percent: 27.12%
SF-539 (CNS Cancer)
  growth percent: 23.09%
ACHN (Renal Cancer)
  growth percent: 46.34%
SK-MEL-28 (Melanoma)
  growth percent: 58.86%

## COc1ccc(C2CC(n3ccnc3)c3cc(OC)c(OC)c(OC)c32)cc1O (stereo not drawn) [Compound 27a, 5-(3-(1H-Imidazol-1-yl)-5,6,7-trimethoxy-2,3-dihydro-1H-inden-1-yl)-2-methoxyphenol]
[1]
  growth percent: 59.58%
A498 (Renal Cancer)
  growth percent: 88.34%
RPMI-8226 (Leukemia)
  growth percent: 94.65%
786-0 (Renal Cancer)
  growth percent: 91.67%
BT-549 (Breast Cancer)
  growth percent: 90.36%
Breast cancer panel
  mean growth percentage: 79.1%
OVCAR-5 (Ovarian Cancer)
  growth percent: 106.81%
[2]
  growth percent: 101.51%
CCRF-CEM (Leukemia)
  growth percent: 90.92%
TK-10 (Renal Cancer)
  growth percent: 101.23%
[3]
  growth percent: 91.50%
RXF 393 (Renal Cancer)
  growth percent: 70.77%
MDA-MB-435 (Melanoma)
  growth percent: 5.00%
M14 (Melanoma)
  growth percent: 73.08%
CAKI-1 (Renal Cancer)
  growth percent: 74.50%
K-562 (Leukemia)
  growth percent: 44.70%
MCF7 (Breast Cancer)
  growth percent: 44.8% and 44.77%
OVCAR-4 (Ovarian Cancer)
  growth percent: 100.34%
KM12 (Colon Cancer)
  growth percent: 50.59%
HCT-15 (Colon Cancer)
  growth percent: 59.92%
[4]
  growth percent: 80.77%
SF-295 (CNS Cancer)
  growth percent: 57.51%
SW-620 (Colon Cancer)
  growth percent: 62.47%
SK-MEL-5 (Melanoma)
  growth percent: 53.15%
Leukemia panel
  mean growth percentage: 73.2%
LOX IMVI (Melanoma)
  growth percent: 86.38%
IGROV1 (Ovarian Cancer)
  growth percent: 82.43%
[5]
  growth percent: 81.01%
UACC-62 (Melanoma)
  growth percent: 65.53%
PC-3 (Prostate Cancer)
  growth percent: 60.69%
UO-31 (Renal Cancer)
  growth percent: 79.93%
MALME-3M (Melanoma)
  growth percent: 73.18%
OVCAR-3 (Ovarian Cancer)
  growth percent: 57.06%
SF-268 (CNS Cancer)
  growth percent: 89.96%
[6]
  growth percent: 50.13%
SNB-75 (CNS Cancer)
  growth percent: 90.16%
HT29 (Colon Cancer)
  growth percent: 101.76%
OVCAR-8 (Ovarian Cancer)
  growth percent: 89.25%
U251 (CNS Cancer)
  growth percent: 80.36%
SF-539 (CNS Cancer)
  growth percent: 89.80%
ACHN (Renal Cancer)
  growth percent: 86.36%
SK-MEL-28 (Melanoma)
  growth percent: 78.29%
